Values of other authors as cited in patent publication US7205293B2, “Benodiazepine spirohydantoin CGRP receptor antagonists” (Merck & Co., Inc., priority 2003, dated 2007).
No end group written: not given here.

Assays:
[1] = tested on: middle meningeal artery diameter; conditions: rats, electrical stimulation of the dura mater, prior administration
[2] = tested on: facial blood flow; conditions: rat, trigeminal ganglion stimulation
[3] = tested on: facial blood flow; conditions: marmoset, electrical stimulation of the trigeminal ganglion

Compound | effect on increase of middle meningeal artery diameter [1] | effect on increase of facial blood flow [2] | effect on increase in facial blood flow [3]
CGRP(8–37): a peptide CGRP antagonist (VTHRLAGLLSRSGGVVKNNFVPTNVGSKAF; ends and bridges not checked; UniProt P06881 90-119, looked up, fragment) | blocked | inhibited | –
NCCCC[C@H](NC(=O)[C@@H](Cc1cc(Br)c(O)c(Br)c1)NC(=O)N1CCC(N2Cc3ccccc3NC2=O)CC1)C(=O)N1CCN(c2ccncc2)CC1 [BIBN4096BS] | – | – | blocked
